Assay results reported in PubChem BioAssay (NCI).
Several values for one entry are separate records, joined by “and”; a condition that tells them apart may be missing. Equal values may be shown once.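 These data come from cells grown in 96-well plates and exposed to compound for 48 hours at five concentrations. Here, GI50 denotes the concentration required for 50% inhibition of growth. Definition used: TGI = concentration required for complete inhibition of growth.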

Key:
Experiment in all cases: growth of human tumour cells (NCI), 48 h
[1] = system: SK-MEL-28 melanoma
[2] = system: MALME-3M melanoma
[3] = system: SR leukemia
[4] = system: SN12C renal
[5] = system: PC-3 prostate
[6] = system: OVCAR-8 ovarian
[7] = system: T-47D breast
[8] = system: OVCAR-5 ovarian
[9] = system: UACC-257 melanoma
[10] = system: NCI-H226 lung

In the case of CCCCCCCCCCN(CCCCCCCCCC)CC(=O)c1ccc2cc(Br)c3ccccc3c2c1, the GI50 [1] is reported as 1.84 µM, the TGI [1] is reported as 3.32 µM and the GI50 [2] is reported as 1.71 µM. For the same compound, the TGI [2] was 3.57 µM, the GI50 [3] was 1.3 µM and the TGI [3] was 4.19 µM. It also gave a GI50 [4] of 1.6 µM, a TGI [4] of 3.33 µM and a GI50 [5] of 2.67 µM. The TGI [5] was 8.95 µM, the GI50 [6] was 2.09 µM and the TGI [6] was 4.31 µM. It also gave a GI50 [7] of 2.44 µM, a TGI [7] of 5.98 µM and a GI50 [8] of 2.23 µM. It also gave a TGI [8] of 5.6 µM, a GI50 [9] of 2.11 µM and a TGI [9] of 4.4 µM. The GI50 [10] was 1.77 µM and the TGI [10] was 3.47 µM.

With CCOC(=O)C(=Cc1ccccc1[N+](=O)[O-])C(=O)OCC the GI50 [1] was 2.93 µM, the TGI [1] was 9.59 µM and the GI50 [2] was 3.85 µM. It also gave a TGI [2] of 13.2 µM, a GI50 [3] of 2.07 µM and a TGI [3] of 30.1 µM. The GI50 [4] was 2.85 µM, the TGI [4] was 11.3 µM and the GI50 [5] was 6.69 µM. For the same compound, the TGI [5] was 34.7 µM, the GI50 [6] was 2.87 µM and the TGI [6] was 11.3 µM. The GI50 [7] was 3.68 µM, the TGI [7] was 17.5 µM and the GI50 [8] was 5.75 µM. For the same compound, the TGI [8] was 15.7 µM, the GI50 [9] was 3.25 µM and the TGI [9] was 14.3 µM. For the same compound, the GI50 [10] was 3.26 µM and the TGI [10] was 12.8 µM.

CCOc1cc2c(NCCCN(CCO)CCO)ncnc2c(OCC)c1OCC was tested, and the TGI [1] was greater than 100 µM, the TGI [2] was greater than 100 µM and the TGI [3] was greater than 100 µM. The TGI [4] was greater than 100 µM, the TGI [5] was greater than 100 µM and the TGI [6] was greater than 100 µM. For the same compound, the TGI [7] was greater than 100 µM, the TGI [8] was greater than 100 µM and the TGI [9] was greater than 100 µM. It also gave a TGI [10] greater than 100 µM.

Compound COc1ccc2c(Nc3ccc(NS(C)(=O)=O)cc3)c3ccccc3nc2c1 has a GI50 [1] of 1.38 µM, a TGI [1] of 3.45 µM and a GI50 [2] of 0.652 µM. The TGI [2] was 2.38 µM, the GI50 [3] was 0.112 µM and the TGI [3] was 6.46 µM. For the same compound, the GI50 [4] was 0.487 µM, the TGI [4] was 13.2 µM and the GI50 [5] was 0.735 µM. For the same compound, the TGI [5] was 10.1 µM, the GI50 [6] was 0.432 µM and the TGI [6] was 5.26 µM. It also gave a GI50 [7] of 0.34 µM, a TGI [7] of 3.14 µM and a GI50 [8] of 1.02 µM. The TGI [8] was 4.91 µM, the GI50 [9] was 0.628 µM and the TGI [9] was 2.17 µM. For the same compound, the GI50 [10] was 0.229 µM and the TGI [10] was 1.59 µM.

For COc1cc2c3c(c1)c1cc(OC)c(OC)cc1c[n+]3CC2, the GI50 [1] was 32.8 µM, the TGI [1] was 50 µM and > 100 µM and the GI50 [2] was 2.71 µM. The TGI [2] was 7.93 µM and 13 µM, the TGI [3] was 50 µM and the GI50 [4] was 5.66 µM. For the same compound, the TGI [4] was 15.6 µM and > 100 µM, the GI50 [5] was 29.9 µM and the TGI [5] was 50 µM and > 100 µM. The GI50 [6] was 1.86 µM, the TGI [6] was 50 µM and 43.6 µM and the GI50 [7] was 6.74 µM. The TGI [7] was 34.2 µM and 72.4 µM, the GI50 [8] was greater than 100 µM and the TGI [8] was greater than 100 µM. For the same compound, the GI50 [9] was 15.9 µM, the TGI [9] was 50 µM and 64.7 µM and the GI50 [10] was 4.13 µM. The TGI [10] was 50 µM and 77.3 µM.

COc1ccc(/C=C/c2nc(NCCCN(C)C)c3ccccc3n2)cc1 gave a GI50 [1] of 4.57 µM, a TGI [1] of 9 µM and a GI50 [2] of 1.62 µM. It also gave a TGI [2] of 3.18 µM, a GI50 [3] of 1.86 µM and a TGI [3] of 4.2 µM. It also gave a GI50 [4] of 11.8 µM, a TGI [4] of 29.3 µM and a GI50 [5] of 3.35 µM. The TGI [5] was 15.2 µM, the GI50 [6] was 4.75 µM and the TGI [6] was 18.7 µM. It also gave a GI50 [7] of 1.81 µM, a TGI [7] of 3.61 µM and a GI50 [8] of 5.58 µM. The TGI [8] was 13.6 µM, the GI50 [9] was 1.87 µM and the TGI [9] was 3.65 µM. It also gave a GI50 [10] of 12 µM and a TGI [10] of 30.7 µM.

O=c1[nH]c(=O)n(C2OC(CO)C(O)C2O)c2c1CCCC2 (centres undefined) gave a TGI [1] greater than 100 µM, a TGI [2] greater than 100 µM and a TGI [3] greater than 100 µM. The TGI [4] was greater than 100 µM, the TGI [5] was greater than 100 µM and the TGI [6] was greater than 100 µM. For the same compound, the TGI [7] was greater than 100 µM, the TGI [8] was greater than 100 µM and the TGI [9] was greater than 100 µM. The TGI [10] was greater than 100 µM.

Work on CCOC(=O)C(CO)c1nc2c([nH]c1=O)c(=O)n(C)c(=O)n2C (centres undefined) yielded a TGI [1] greater than 100 µM, a TGI [2] greater than 100 µM and a TGI [3] greater than 100 µM. For the same compound, the TGI [4] was greater than 100 µM, the TGI [5] was greater than 100 µM and the TGI [6] was greater than 100 µM. The TGI [7] was 60.8 µM, the TGI [8] was greater than 100 µM and the TGI [9] was greater than 100 µM. It also gave a TGI [10] greater than 100 µM.

Compound O=[N+]([O-])c1ccc(N/N=C/c2c(O)ccc3ccccc23)nc1 has a GI50 [1] greater than 100 µM, a TGI [1] greater than 100 µM and a GI50 [2] of 27.8 µM. It also gave a TGI [2] greater than 100 µM, a GI50 [3] of 0.665 µM and a TGI [3] greater than 100 µM. For the same compound, the GI50 [4] was 48.5 µM, the TGI [4] was greater than 100 µM and the GI50 [5] was 48.7 µM. For the same compound, the TGI [5] was greater than 100 µM, the GI50 [6] was 5.78 µM and the TGI [6] was greater than 100 µM. For the same compound, the GI50 [7] was 6.39 µM, the TGI [7] was greater than 100 µM and the GI50 [8] was greater than 100 µM. For the same compound, the TGI [8] was greater than 100 µM, the GI50 [9] was 8.75 µM and the TGI [9] was greater than 100 µM. It also gave a GI50 [10] of 93.8 µM and a TGI [10] greater than 100 µM.

For C[C@]1(CO)[C@H]2CC[C@@]34C=C[C@@](CO)(CC[C@H]3[C@]2(C)CC[C@H]1O)C4, the TGI [1] was greater than 100 µM, the TGI [2] was greater than 100 µM and the TGI [3] was greater than 100 µM. For the same compound, the TGI [4] was greater than 100 µM, the TGI [5] was greater than 100 µM and the TGI [6] was greater than 100 µM. The TGI [7] was 84.3 µM, the TGI [8] was greater than 100 µM and the TGI [9] was greater than 100 µM. The TGI [10] was greater than 100 µM.

For CCOC(=O)C(Cc1c[nH]c2ccc(N(CCCl)CCCl)cc12)(NC(C)=O)C(=O)OCC, the GI50 [1] was 31.6 µM and 23 µM, the TGI [1] was 238 µM and the GI50 [2] was 11.1 µM. The TGI [2] was 28.3 µM, the GI50 [3] was 1.86 µM and the TGI [3] was 7.14 µM. The GI50 [4] was 8.82 µM and 8.93 µM, the TGI [4] was 564 µM and the GI50 [5] was 3.84 µM and 18.5 µM. The TGI [5] was 48.1 µM and 332 µM, the GI50 [6] was 14.3 µM and 19.8 µM and the TGI [6] was 45 µM. The GI50 [7] was 9.31 µM and 6.59 µM, the TGI [7] was 51.9 µM and > 71.8 µM and the GI50 [8] was 30.8 µM and 25.2 µM. The TGI [8] was 67 µM and 75.7 µM, the GI50 [9] was 17.6 µM and 23.9 µM and the TGI [9] was 52.6 µM and 94 µM. The GI50 [10] was 14.1 µM and 19.4 µM and the TGI [10] was 41.4 µM and 67.9 µM.

With CC(C)c1ccc(C(=O)Nc2sc3c(c2C#N)CCC(=O)C3)cc1 the GI50 [1] was 0.754 µM, the TGI [1] was 9.84 µM and the GI50 [2] was 1.17 µM. The TGI [2] was 3.82 µM, the GI50 [3] was 0.424 µM and the TGI [3] was greater than 100 µM. For the same compound, the GI50 [4] was 0.378 µM, the TGI [4] was greater than 100 µM and the GI50 [5] was 0.263 µM. It also gave a TGI [5] greater than 23.7 µM, a GI50 [6] of 0.431 µM and a TGI [6] greater than 100 µM. The GI50 [7] was 0.263 µM, the TGI [7] was 1.48 µM and the GI50 [8] was 0.552 µM. For the same compound, the TGI [8] was 5.11 µM, the GI50 [9] was 1.73 µM and the TGI [9] was 6.05 µM. The GI50 [10] was 3.88 µM and the TGI [10] was 16.3 µM.

C=C1C(=O)OC2CC1C(O)C/C(C)=C/CC/C(C)=C/C(O)CC2C (centres undefined) was tested, and the TGI [1] was 9.8 µM, the TGI [2] was 7.61 µM and the TGI [3] was 2.61 µM. It also gave a TGI [4] of 4.83 µM, a TGI [5] of 13.1 µM and a TGI [6] of 4.72 µM. For the same compound, the TGI [7] was 4.48 µM, the TGI [8] was 24.7 µM and the TGI [9] was 10.3 µM. For the same compound, the TGI [10] was 24.8 µM.
